Conditions: Liquid; for speed of sound: Linear variable-path acoustic interferometer

CCCCn1cc[n+](C)c1.F[B-](F)(F)F [1-butyl-3-methylimidazolium tetrafluoroborate]
Conditions	mass density [kg/m3]	speed of sound [m/s]
283.15 K, 100 kPa	–	1599.5
283.15 K, 4956 kPa	–	1612.5
283.15 K, 9954 kPa	–	1626.2
283.15 K, 20130 kPa	–	1653.1
283.15 K, 30003 kPa	–	1678.3
283.15 K, 44948 kPa	–	1714.7
283.15 K, 59705 kPa	–	1749
283.15 K, 79788 kPa	–	1793
283.15 K, 99235 kPa	–	1833.6
283.15 K, 124380 kPa	–	1882.9
283.15 K, 151416 kPa	–	1932.2
293.15 K, 100 kPa	–	1570.2
293.15 K, 5094 kPa	–	1584
293.15 K, 10075 kPa	–	1597.7
293.15 K, 20080 kPa	–	1624.4
293.15 K, 59673 kPa	–	1721
293.15 K, 98994 kPa	–	1806.1
293.15 K, 151068 kPa	–	1907.3
298.34 K, 100 kPa	1205.03	–
298.34 K, 700 kPa	1205.32	–
298.34 K, 5280 kPa	1207.44	–
298.34 K, 10600 kPa	1209.87	–
298.34 K, 15920 kPa	1212.24	–
298.34 K, 20540 kPa	1214.26	–
298.34 K, 25000 kPa	1216.18	–
298.34 K, 30710 kPa	1218.62	–
298.34 K, 35190 kPa	1220.47	–
298.34 K, 40660 kPa	1222.73	–
298.34 K, 44370 kPa	1224.21	–
298.34 K, 49660 kPa	1226.32	–
298.34 K, 54340 kPa	1228.16	–
298.34 K, 59230 kPa	1230.05	–
303.15 K, 100 kPa	–	1544.9
303.15 K, 5080 kPa	–	1558.6
303.15 K, 10091 kPa	–	1572.5
303.15 K, 20063 kPa	–	1599.5
303.15 K, 59767 kPa	–	1697
303.15 K, 99007 kPa	–	1782.6
303.15 K, 124609 kPa	–	1834
303.23 K, 100 kPa	1201.29	–
303.23 K, 8780 kPa	1205.3	–
303.23 K, 11170 kPa	1206.4	–
303.23 K, 15230 kPa	1208.22	–
303.23 K, 20270 kPa	1210.43	–
303.23 K, 24890 kPa	1212.44	–
303.23 K, 30670 kPa	1214.92	–
303.23 K, 34770 kPa	1216.66	–
303.23 K, 40020 kPa	1218.85	–
303.23 K, 44310 kPa	1220.61	–
303.23 K, 49500 kPa	1222.73	–
303.23 K, 54490 kPa	1224.75	–
303.23 K, 59820 kPa	1226.85	–
313.01 K, 100 kPa	1194.59	–
313.01 K, 4130 kPa	1196.19	–
313.01 K, 10180 kPa	1198.82	–
313.01 K, 15650 kPa	1201.26	–
313.01 K, 21300 kPa	1203.75	–
313.01 K, 24580 kPa	1205.19	–
313.01 K, 30110 kPa	1207.62	–
313.01 K, 35390 kPa	1209.88	–
313.01 K, 44700 kPa	1213.84	–
313.01 K, 49720 kPa	1215.92	–
313.01 K, 54430 kPa	1217.91	–
313.01 K, 59450 kPa	1219.95	–
313.15 K, 100 kPa	–	1525.2
313.15 K, 5091 kPa	–	1539.3
313.15 K, 10185 kPa	–	1554
313.15 K, 20070 kPa	–	1581
313.15 K, 59719 kPa	–	1679.3
313.15 K, 99014 kPa	–	1765.8
313.15 K, 123975 kPa	–	1816.6
313.15 K, 151204 kPa	–	1870
322.85 K, 100 kPa	1187.85	–
322.85 K, 3730 kPa	1189.5	–
322.85 K, 6220 kPa	1190.68	–
322.85 K, 10020 kPa	1192.47	–
322.85 K, 14870 kPa	1194.68	–
322.85 K, 20450 kPa	1197.2	–
322.85 K, 25400 kPa	1199.38	–
322.85 K, 31090 kPa	1201.87	–
322.85 K, 34850 kPa	1203.51	–
322.85 K, 41130 kPa	1206.23	–
322.85 K, 44880 kPa	1207.85	–
322.85 K, 49830 kPa	1209.95	–
322.85 K, 54520 kPa	1211.91	–
322.85 K, 59920 kPa	1214.2	–
323.15 K, 100 kPa	–	1503.4
323.15 K, 4999 kPa	–	1517.8
323.15 K, 10202 kPa	–	1533.4
323.15 K, 20046 kPa	–	1561.4
323.15 K, 59977 kPa	–	1662.1
323.15 K, 99014 kPa	–	1748.8
323.15 K, 123945 kPa	–	1798.9
323.15 K, 151374 kPa	–	1853.2
332.73 K, 100 kPa	1181.05	–
332.73 K, 4130 kPa	1182.92	–
332.73 K, 6350 kPa	1183.98	–
332.73 K, 11210 kPa	1186.3	–
332.73 K, 15220 kPa	1188.15	–
332.73 K, 20540 kPa	1190.55	–
332.73 K, 25280 kPa	1192.7	–
332.73 K, 30760 kPa	1195.16	–
332.73 K, 35080 kPa	1197.05	–
332.73 K, 40110 kPa	1199.23	–
332.73 K, 44860 kPa	1201.24	–
332.73 K, 49840 kPa	1203.35	–
332.73 K, 54760 kPa	1205.7	–
332.73 K, 59130 kPa	1207.2	–

Reference: the NIST ThermoML archive (doi:10.1021/je049534w)
